Data reported in EP0554004A2, “Cephem compounds and antibacterial agents” (KATAYAMA SEIYAKUSYO CO. Ltd., priority 1992, dated 1993).
≈ marks a conversion by molar mass, not a printed value.

Tests used:
E. coli CSH2 (RK1) = experiment: MIC against standard strains (Test Example 3); assay type: cell-based; details: Escherichia coli
Procedure, shortened: (§1)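 Each agent was incorporated into Mueller-Hinton agar, then seeded with 1 x 10^6 CFU/ml of bacteria from overnight broth culture. Plates stood overnight at 37°C before the lowest growth-inhibiting concentration was recorded as MIC.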

K. pneumoniae IFO3317 = experiment: MIC against standard strains (Test Example 3); assay type: cell-based; details: Klebsiella pneumoniae; K. pneumoniae IFO3317 (Test Example 3); read-out: MIC
Procedure, shortened: (§2)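 Agar dilution on Muller-Hinton agar containing test agent, inoculated with overnight Muller-Hinton broth cultures adjusted to 1 x 10^6 CFU/ml; MIC read as lowest concentration inhibiting growth after overnight incubation at 37°C.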

A. calcoaceticos T59 = experiment: MIC against standard strains (Test Example 3); assay type: cell-based; details: A. calcoaceticos T59 (Test Example 3); read-out: MIC
Procedure, shortened: as §2

E. coli CSH2 (RE45) = experiment: MIC against standard strains (Test Example 3); assay type: cell-based; details: Escherichia coli
Procedure, shortened: as §1

K. pneumoniae No. 42 = experiment: MIC against standard strains (Test Example 3); assay type: cell-based; details: Klebsiella pneumoniae; K. pneumoniae No. 42 (Test Example 3); read-out: MIC
Procedure, shortened: as §2

M. luteus ATCC 9341 = experiment: MIC against standard strains (Test Example 3); assay type: cell-based; details: Micrococcus luteus, ATCC9341; M. luteus ATCC 9341 (Test Example 3); read-out: MIC
Procedure, shortened: as §2

S. aureus 167 = experiment: MIC against standard strains (Test Example 3); assay type: cell-based; details: Staphylococcus aureus; S. aureus 167 (MRSA) (Test Example 3); read-out: MIC
Procedure, shortened: as §2

E. cloacae ATCC13407 = experiment: MIC against standard strains (Test Example 3); assay type: cell-based; details: Enterobacter cloacae; E. cloacae ATCC13407 (Test Example 3); read-out: MIC
Procedure, shortened: as §2

S. epidemidis IAM1296 = experiment: MIC against standard strains (Test Example 3); assay type: cell-based; details: S. epidemidis IAM1296 (Test Example 3); read-out: MIC
Procedure, shortened: as §2

S. aureus 195 = experiment: MIC against standard strains (Test Example 3); assay type: cell-based; details: Staphylococcus aureus; S. aureus 195 (MRSA) (Test Example 3); read-out: MIC
Procedure, shortened: as §2

A. faecalis ATCC3750 = experiment: MIC against standard strains (Test Example 3); assay type: cell-based; details: Alcaligenes faecalis; A. faecalis ATCC3750 (Test Example 3); read-out: MIC
Procedure, shortened: as §2

S. marcescens IAM1184 = experiment: MIC against standard strains (Test Example 3); assay type: cell-based; details: Serratia marcescens; S. marcescens IAM1184 (Test Example 3); read-out: MIC
Procedure, shortened: as §2

M. Morganii IFO3848 = experiment: MIC against standard strains (Test Example 3); assay type: cell-based; details: Morganella morganii; M. Morganii IFO3848 (Test Example 3); read-out: MIC
Procedure, shortened: as §2

P. aeruginosa NCTC10490 = experiment: MIC against standard strains (Test Example 3); assay type: cell-based; details: Pseudomonas aeruginosa; P. aeruginosa NCTC10490 (Test Example 3); read-out: MIC
Procedure, shortened: as §2

E. coli NIHJ JC-2 = experiment: MIC against standard strains (Test Example 3); assay type: cell-based; details: Escherichia coli, NIHJJC2; E. coli NIHJ JC-2 (Test Example 3); read-out: MIC
Procedure, shortened: as §2

P. vulugaris OX-19 = experiment: MIC against standard strains (Test Example 3); assay type: cell-based; details: P. vulugaris OX-19 (Test Example 3); read-out: MIC
Procedure, shortened: as §2

S. aureus Smith = experiment: MIC against standard strains (Test Example 3); assay type: cell-based; details: Staphylococcus aureus; S. aureus Smith (Test Example 3); read-out: MIC
Procedure, shortened: as §2

P. mirabilis IFO3849 = experiment: MIC against standard strains (Test Example 3); assay type: cell-based; details: Proteus mirabilis; P. mirabilis IFO3849 (Test Example 3); read-out: MIC
Procedure, shortened: as §2

S. aureus 209p JC-1 = experiment: MIC against standard strains (Test Example 3); assay type: cell-based; details: Staphylococcus aureus; S. aureus 209p JC-1 (Test Example 3); read-out: MIC
Procedure, shortened: as §2

C. freundii ATCC8090 = experiment: MIC against standard strains (Test Example 3); assay type: cell-based; details: Citrobacter freundii; C. freundii ATCC8090 (Test Example 3); read-out: MIC
Procedure, shortened: as §2

B. subtilis ATCC6633 = experiment: MIC against standard strains (Test Example 3); assay type: cell-based; details: Bacillus subtilis; B. subtilis ATCC6633 (Test Example 3); read-out: MIC
Procedure, shortened: as §2

clinically isolated MRSA = experiment: Antibacterial potency against clinically isolated MRSA (Test Example 2); assay type: cell-based, methicillin-resistant Staphylococcus aureus; details: Staphylococcus aureus, 52 strains of clinically isolated MRSA
Procedure, shortened: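 MIC measured against 52 clinical MRSA strains by the Japan Chemotherapical Society standard method. MIC50 and MIC90 (µg/ml) are the concentrations inhibiting growth of 50% and 90% of strains.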

[1] = test system: Pseudomonas aeruginosa NCTC 10490; experiment: MIC against standard strains (Test Example 1); assay type: cell-based; details: NCTC10490, Muller-Hinton agar, 37°C overnight
Experimental: (§3) By using each test strain cultured overnight at 37°C in a Muller-Hinton broth, there was prepared a bacterial solution with a bacterial cell population of 1 x 10^6 CFU/mi of the same bouillon. The bacterial solution was inoculated into the Muller-Hinton agar media each containing respectively one test agent and, after overnight incubation at 37°C, the minimum concentration that inhibited growth of the bacteria was determined and shown as MIC also in Table 1.
(§4) Staphylococcus aureus 167 and Staphylococcus aureus 195 used in the test were MRSA. CTM (cefotiam) and FMOX (flomoxef) were used as control agents.

[2] = test system: Escherichia coli NIHJ JC-2; experiment: MIC against standard strains (Test Example 1); assay type: cell-based; details: NIHJJC2, Muller-Hinton agar, 37°C overnight
Experimental: as §3, §4

[3] = test system: Bacillus subtilis ATCC 6633; experiment: MIC against standard strains (Test Example 1); assay type: cell-based; details: ATCC6633, Muller-Hinton agar, 37°C overnight
Experimental: as §3, §4

[4] = test system: Staphylococcus aureus Smith; experiment: MIC against standard strains (Test Example 1); assay type: cell-based; details: Muller-Hinton agar, 37°C overnight
Experimental: as §3, §4

[5] = test system: Staphylococcus aureus 195; experiment: MIC against standard strains (Test Example 1); assay type: cell-based; details: Staphylococcus aureus 195 (MRSA); Muller-Hinton agar, 37°C overnight
Experimental: as §3, §4

[6] = test system: Enterobacter cloacae ATCC 13407; experiment: MIC against standard strains (Test Example 1); assay type: cell-based; details: ATCC13407, Muller-Hinton agar, 37°C overnight
Experimental: as §3, §4

Q: For CO[C@@]1(NC(=O)CSC(F)F)C(=O)N2C(C(=O)O)=C(CSc3nnnn3CCO)CO[C@@H]21 [FMOX, flomoxef, reference compound], which MIC (E. coli CSH2 (RK1)) is on record?
A: The MIC was 0.05 µg/mL (≈ 0.101 µM).

Q: What about the MIC (K. pneumoniae IFO3317) of the same compound?
A: Its MIC is 0.025 µg/mL (≈ 0.0504 µM).

Q: And the MIC (A. calcoaceticos T59)?
A: Its MIC is 50 µg/mL (≈ 101 µM).

Q: What about the MIC (E. coli CSH2 (RE45)) of the same compound?
A: Its MIC is 0.05 µg/mL (≈ 0.101 µM).

Q: And the MIC (K. pneumoniae No. 42)?
A: The MIC was 0.05 µg/mL (≈ 0.101 µM).

Q: And the MIC (M. luteus ATCC 9341)?
A: Its MIC is 0.05 µg/mL (≈ 0.101 µM).

Q: And the MIC (S. aureus 167)?
A: The MIC was 50 µg/mL (≈ 101 µM).

Q: What about the MIC (E. cloacae ATCC13407) of the same compound?
A: Its MIC is 25 µg/mL (≈ 50.4 µM).

Q: What about the MIC (S. epidemidis IAM1296) of the same compound?
A: Its MIC is 0.2 µg/mL (≈ 0.403 µM).

Q: And the MIC (S. aureus 195)?
A: The MIC was 3.13 µg/mL (≈ 6.3 µM).

Q: What about the MIC (A. faecalis ATCC3750) of the same compound?
A: Its MIC is 0.1 µg/mL (≈ 0.201 µM).

Q: What about the MIC (S. marcescens IAM1184) of the same compound?
A: Its MIC is 0.2 µg/mL (≈ 0.403 µM).

Q: And the MIC (M. Morganii IFO3848)?
A: Its MIC is 0.39 µg/mL (≈ 0.786 µM).

Q: What about the MIC (P. aeruginosa NCTC10490) of the same compound?
A: Its MIC is greater than 100 µg/mL.

Q: And the MIC (E. coli NIHJ JC-2)?
A: Its MIC is 0.05 µg/mL (≈ 0.101 µM).

Q: And the MIC (P. vulugaris OX-19)?
A: Its MIC is 0.39 µg/mL (≈ 0.786 µM).

Q: What about the MIC (S. aureus Smith) of the same compound?
A: Its MIC is 0.39 µg/mL (≈ 0.786 µM).

Q: What about the MIC (P. mirabilis IFO3849) of the same compound?
A: The MIC was 0.2 µg/mL (≈ 0.403 µM).

Q: What about the MIC (S. aureus 209p JC-1) of the same compound?
A: Its MIC is 0.39 µg/mL (≈ 0.786 µM).

Q: And the MIC (C. freundii ATCC8090)?
A: Its MIC is 0.39 µg/mL (≈ 0.786 µM).

Q: And the MIC (B. subtilis ATCC6633)?
A: Its MIC is 0.2 µg/mL (≈ 0.403 µM).

Q: What about the MIC50 (clinically isolated MRSA; concentration inhibiting growth of 50% of the strains (Test Example 2)) of the same compound?
A: The MIC50 was 8.16 µg/mL (≈ 16.4 µM).

Q: What about the MIC90 (clinically isolated MRSA; concentration inhibiting growth of 90% of the strains (Test Example 2)) of the same compound?
A: The MIC90 was 40.2 µg/mL (≈ 81 µM).

Q: And the MIC [1]?
A: Its MIC is greater than 100 µg/mL.

Q: What about the MIC [2] of the same compound?
A: Its MIC is 0.05 µg/mL (≈ 0.101 µM).

Q: What about the MIC [3] of the same compound?
A: The MIC was 0.2 µg/mL (≈ 0.403 µM).

Q: And the MIC [4]?
A: Its MIC is 0.39 µg/mL (≈ 0.786 µM).

Q: And the MIC [5]?
A: Its MIC is 6.25 µg/mL (≈ 12.6 µM).

Q: What about the MIC [6] of the same compound?
A: Its MIC is 25 µg/mL (≈ 50.4 µM).
